{
  "source": "patent US20030064380A1",
  "about": "“Anergy-regulated molecules” (The Center For Blood Research, Inc., priority 2001, published 2003)",
  "system": "Th2 cells",
  "assay": "cytokine mRNA levels in Th2 cells after ionomycin pretreatment",
  "assay_type": "cell-based",
  "description": "Total cellular RNA was purified from resting cells or cells stimulated with APC and antigen or anti-CD3 plus anti-CD28 for 4 h, using Ultraspec reagent (Biotecx) and analyzed using the RiboQuant multiprobe RNase protection kit and specific multi-set probes (Pharmingen) according to the manufacturer's instructions. Jurkat cells were transfected by electroporation in serum-free medium with pulses of 250 V and 960 μF with […] of pEGFPN1 (Clontech) or pNLS-NFAT1 (ST2+5+8) (Okamura et al., (2000) Mol. Cell. 6: 539-550). RNA from transiently transfected Jurkat cells was obtained after selecting transfected cells for expression of a cotransfected murine CD4 plasmid using magnetic beads (Dynal).\nThus the net effect of a tolerising stimulus on T cells is to skew the cytokine response towards production of the immunosuppressive cytokine […], while down-regulating production of multiple other cytokines and chemokines associated with a productive immune response.",
  "data": [
    {"smiles": "C[C@H](CCC(=O)O)C[C@H](C)C[C@H](C)C(=O)/C=C(\\O)[C@H](C)C[C@H](C)C/C=C/[C@@H](C)[C@@H](O)[C@@H](C)[C@@H](O)C[C@@H]1CC[C@@](C)([C@H]2CC[C@@](C)([C@@H](C)O)O2)O1", "note": "[Ionomycin, ionomycin]", "values": [
      {"measurement": "IL-10 transcript levels", "value": "not affected"},
      {"measurement": "reduction in mRNA levels of IL-4, IL-5 and IL-13", "value": "approximately 70%"}
    ]}
  ]
}
